Measurements reported in PubChem BioAssay AID179 (DTP/NCI, 2004).
Values joined by “and” are separate entries in the source; they are usually repeats but may differ in a detail not shown here. Equal values may be shown once. Active and inactive are the calls of the source.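 How the source made its calls: active means compounds giving half or more protection of infected cells from virus-caused growth loss, again on retest; inactive means the rest.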

Tested on: CEM cells HIV-1 protection, formazan growth assay
Test: NCI AIDS Antiviral Assay
Conditions: for IC50: measured here: growth of uninfected CEM cells
Summary of the method: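 Five concentrations of each compound were applied to infected and uninfected human CEM cells. Protection from HIV-1 was judged from growth measured with a soluble formazan assay.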

Row | SMILES | EC50 | IC50 | outcome
1 | CC(C)(C)c1cc(-c2c3nc(c(-c4cc(C(C)(C)C)cc(C(C)(C)C)c4)c4ccc([nH]4)c(-c4cc(C(C)(C)C)cc(C(C)(C)C)c4)c4nc(c(-c5cc(C(C)(C)C)cc(C(C)(C)C)c5)c5ccc2[nH]5)C=C4)C=C3)cc(C(C)(C)C)c1 | > 33.9 µM | > 33.9 µM | –
2 | CCC(C)(O)c1cn(-c2ccc(S(=O)(=O)O)cc2)nn1 (stereo not drawn) | > 417 µM | > 417 µM | –
3 | CCN=C(NNc1ccc([N+](=O)[O-])cc1)P(=O)(OC(C)C)OC(C)C | > 36.3 µM | > 36.3 µM | –
4 | CCOC(=O)c1oc2c(OC)cc(Cl)c3c2c1CCC3 | – | – | inactive
5 | CCOC(=O)c1cc(-c2ccc(OC)cc2)c([N+](=O)[O-])n1C | > 200 µM | 32.4 µM | –
6 | O=C1C[C@H](c2ccc(O)c(O)c2)Oc2cc(O)cc(O)c21 | > 631 µM | 97.7 µM | –
7 | CC(C)=CCC[C@@H](C)C1=C(Nc2ccccc2Cl)C(O)=C(C)C(=O)C1=O | > 200 µM | 1.55 µM | –
8 | NC(=O)N=C(N(Cc1ccccc1)Cc1ccccc1)N(Cc1ccccc1)Cc1ccccc1 | > 7.59 µM | 2.24 µM | –
9 | COc1cccc(/C=C(\C#N)C(=O)O)c1 | > 1230 µM | 158 µM | –
10 | Cc1cc(C)c2cc(N)c(Cl)nc2n1 | > 200 µM | 145 µM | –
11 | O=C(O)c1c(O)ccc(N=Nc2ccc(/C=C/c3ccc(N=Nc4ccc(O)c(C(=O)O)c4O)cc3S(=O)(=O)O)c(S(=O)(=O)O)c2)c1O | > 14.5 µM | > 14.5 µM | –
12 | COC(=O)[C@@H]1[C@H]2CC[C@]3(C)[C@@H](OC(C)=O)CC[C@H]3[C@@H]2CC[C@H]1C(C)=O | > 174 µM | > 174 µM | –
13 | Oc1nc2nc[nH]n2c1N=Nc1ccccc1 | > 200 µM | > 200 µM | –
14 | O=C(C/C(=N/O)C(F)(F)F)c1cccs1 | > 200 µM | > 200 µM | –
15 | COc1ccc(OC)c(CCc2ccccc2CC(=O)O)c1 | > 832 µM | 501 µM | –
16 | COc1ccc2cc(C(=O)NCCc3ccccc3)ccc2c1OC | > 200 µM | > 200 µM | –
17 | Cc1c(C)c(C)n(C2OC(CO)C(O)C(O)C2O)c(=S)c1C#N (stereo not drawn) | > 100 µM | > 100 µM | –
18 | Cc1c(Cl)cccc1NC(=O)C(=O)c1c(O)c2ccc(O)cc2oc1=O | > 95.5 µM | > 95.5 µM | –
19 | C=C1C(=O)OC2C3C(=C)[C@@H](OC(C)=O)CC3C(C)=CC(OC(=O)C(C)(O)C(C)OC(C)=O)[C@@H]12 (stereo partly drawn) | > 200 µM | > 200 µM | –
20 | CCC(=O)C1(c2cccc(OC)c2)CCN(C)CC1 | > 832 µM | 457 µM | –
21 | Nc1c(N=O)c(=O)n(Cc2ccccc2)c(=O)n1Cc1ccccc1 | > 200 µM | 11.7 µM | –
22 | CN(C)CCSC(=Nc1ccccc1)N1CCCCC1 | > 123 µM | 20.9 µM | –

Row | SMILES | EC50 | IC50 | outcome
23 | C/C(O)=C(\C=N\C(=S)Nc1ccccc1)C(=O)Nc1ccc(Cl)cc1 | – | – | inactive
24 | N#CC1(C#N)N[C@@H](c2ccsc2)[C@H]2C(=O)N(c3ccccc3)C(=O)[C@H]21 | > 200 µM | 53.7 µM | –
25 | C/C(=N\NC(=S)NNC(=S)N(C)c1ccccc1)c1ccccn1 | > 52.5 µM | 0.427 µM | –
26 | Cc1ccc(-n2c(O)c3c(N)n[nH]c3c(C#N)c2=O)cc1 | 155 µM | > 200 µM | –
27 | N#Cc1c(-c2ccc(Cl)cc2)c(C#N)c(=O)n(NS(=O)(=O)c2ccccc2)c1O | > 200 µM | > 200 µM | –
28 | C[Si](C)(C)C#CC(O)CS(=O)c1ccccc1 (stereo not drawn) | > 200 µM | 105 µM | –
29 | CNCCC=C1c2ccccc2CCc2ccccc21 | > 200 µM | 28.8 µM and 33.1 µM | –
30 | Cc1ccc(/C=C/C(=O)C(C)(C)CN2CCCCC2)cc1 | > 27.5 µM | > 27.5 µM | –
31 | CCCC1N=C(c2ccccc2)C2C(c3ccc([N+](=O)[O-])cc3)N12 (stereo not drawn) | > 200 µM | 148 µM | –
32 | CCCCCC(/C=C/[C@@H]1[C@@H](C(O)CCCCCC(=O)OC)C(=O)C[C@H]1O[Si](C)(C)C(C)(C)C)OCOCCOC (stereo partly drawn) | – | – | inactive
33 | COC1=C(C)C(=O)C(=O)c2ccccc21 | – | – | inactive
34 | CC(Cc1ccc2c(c1)OCO2)N(C)C(=O)C1=CCN(C)CC1 (stereo not drawn) | > 200 µM | > 200 µM | –
35 | C/C(CC(=O)Nc1ccc(Cl)cc1)=N\NC(=O)C[n+]1ccccc1 | > 49 µM | > 49 µM | –
36 | O=Nc1c(NO)ccc2nn(-c3ccccc3)nc12 | > 20 µM | 1.32 µM | –
37 | CN(C)/C=C\c1c([N+](=O)[O-])ncn1C | > 200 µM | > 200 µM | –
38 | O=C(CCC(=O)Nc1ccc(Cl)c(Cl)c1)CC(=O)c1ccc(Br)cc1 | > 282 µM | > 282 µM | –
39 | COc1cc(CC(C)NC(C)=O)cc(OC)c1 (stereo not drawn) | > 200 µM | > 200 µM | –
40 | CCOC(=O)Nc1cc2c(c(N)n1)N=C(c1ccc(Cl)cc1Cl)CN2 | > 10 µM | 0.017 µM | –
41 | COc1ccc(C(=O)/C=C/c2ccc(OCC(=O)N3CCN(c4ccccc4)CC3)cc2)cc1 | > 29.5 µM | > 29.5 µM | –
42 | O=c1c(O)c(-c2ccc(O)c(O)c2)oc2cc(O)cc(O)c12 | – | – | inactive
43 | COCC[P+](c1ccccc1)(c1ccccc1)c1ccccc1 | > 200 µM | 7.76 µM | –
44 | CCC1CC2CN3CCc4c([nH]c5ccc(OC)cc45)C(COC(=O)c4ccc(OC)c(OC)c4)(C2)C13 (stereo not drawn) | – | – | inactive

Row | SMILES | EC50 | IC50 | outcome
45 | CC(=Nc1ccccc1C(=O)[O-])c1c([O-])ccc2c(C)cc(=O)oc12.[OH3+].[OH3+].[OH3+].[Zn+2] | > 2.29 µM | > 2.29 µM | –
46 | CCOC1C(Br)Cn2c(=O)c3cc4ccccc4cc3c(=O)n2C1C (stereo not drawn) | > 17.8 µM | > 17.8 µM | –
47 | C1CCc2nnnn2CC1 | > 200 µM and 120 µM | > 200 µM and 724 µM | –
48 | O=C1c2cc3c(cc2CC12Cc1cc4c(cc1C2=O)CCC4)CCC3 | 158 µM | > 200 µM | –
49 | Cc1ccc(C2(C)NC(=S)N(NC(N)=S)C2=S)cc1 (stereo not drawn) | > 32.4 µM | > 32.4 µM | –
50 | CN(C)CCCN=C(N)CSP(=O)(O)O | > 200 µM | 32.4 µM | –
51 | COc1ccc2[nH]c3c(cnn4cnnc34)c2c1 | – | – | inactive
52 | FC(F)(F)c1cccc(C2SCc3nc4ccccc4n32)c1 (stereo not drawn) | – | – | inactive
53 | Cc1ccnc2c1NC(=O)c1cccnc1N2C1CC1 | 0.0437 µM | 195 µM | –
54 | CC(=O)N1C(=O)C2(NCCCN2)c2ccccc21 | > 40.7 µM | > 40.7 µM | –
55 | COc1ccc(NC(=O)CC(=O)n2nc(C)c(N=Nc3cccc(C)c3)c2C)cc1 | > 200 µM | > 200 µM | –
56 | COc1cccc2ccc3c(c12)C(=O)OC31CCc2c(C)cccc21 (stereo not drawn) | – | – | inactive
57 | CC(=O)OCC1OC(n2c(-c3ccc(C)cc3)cc(-c3ccco3)c(C#N)c2=O)C(OC(C)=O)C(OC(C)=O)C1OC(C)=O (stereo not drawn) | > 16.2 µM | > 16.2 µM | –
58 | CC1=C(C(=O)NCc2ccccc2)C(c2ccc(Cl)c(Cl)c2)C(C(=O)NCc2ccccc2)=C(C)N1 | – | – | inactive
59 | COc1ccccc1NC(=S)N/C=C(\C#N)c1nc2ccccc2s1 | > 200 µM | 117 µM | –
60 | CS(=O)(=O)Nc1ccc2oc(=O)c3ccccc3c2c1 | > 200 µM | 24 µM | –
61 | COC(=O)N1N=C(c2ccccc2)C1c1ccccc1 (stereo not drawn) | > 200 µM | 38 µM | –
62 | CCOP(=O)(OCC)/C(C)=N/O | > 1290 µM | > 1290 µM | –
63 | Cc1csc2c(=O)n(COCc3ccccc3)c(=O)[nH]c12 | > 200 µM | > 200 µM | –
64 | COC(=O)C(=O)C(C(=O)C(=O)Nc1ccccc1[N+](=O)[O-])c1nc2ccc([N+](=O)[O-])cc2[nH]c1=O (stereo not drawn) | > 269 µM | 245 µM | –
65 | CC(Oc1ccc(OCC2CCCCC2)cc1)C(=O)OCC(=O)c1ccc(-c2ccccc2)cc1 (stereo not drawn) | > 20.9 µM | > 20.9 µM | –
66 | CN(C)Cc1c[nH]c2c1S/C(=C/c1ccccc1)C2=O | > 178 µM | 16.6 µM | –

Row | SMILES | EC50 | IC50 | outcome
67 | COC(=CN=Nc1nc(C#N)c(C#N)[nH]1)OC | > 214 µM | 162 µM | –
68 | c1onc2c1CCCC2 (tested in a mixture with another compound) | > 1620 µM | > 1620 µM | –
69 | COc1ccc2c(c1)CC1COc3cc(OC)ccc3C1O2 (stereo not drawn) | > 200 µM | > 200 µM | –
70 | O=c1nc(Oc2c(F)c(F)c(F)c(F)c2F)ccn1C1OC(CO)C(O)C1O (stereo not drawn) | > 200 µM | 120 µM | –
71 | COC(=O)c1sc(=NC(=S)N2CCCCC2)sc1C(=O)OC | – | – | inactive
72 | O=C(O)c1ccc(-n2[se]c3ccccc3c2=O)cc1 | 7.24 µM | 20.4 µM | –
73 | CCCc1cc(=O)oc2c(C=O)c(O)cc(O)c12 | > 200 µM | 63.1 µM | –
74 | Cc1cc(-c2ccc(N=Nc3c(S(=O)(=O)O)cc4cccc(S(=O)(=O)O)c4c3O)c(C)c2)ccc1N=Nc1ccc2c(S(=O)(=O)O)ccc(N)c2c1O | – | – | inactive
75 | Cc1ccc(C(c2c(O)c3ccccc3n(-c3ccccc3)c2=O)c2c(O)c3ccccc3n(-c3ccccc3)c2=O)cc1 | > 12.6 µM | > 12.6 µM | –
76 | O=C(NNC(=O)c1ccccn1)c1ccccn1 | > 200 µM | 4.68 µM | –
77 | C/C(=C\c1ccc(N(C)C)cc1)C(=O)O | > 66.1 µM | > 66.1 µM | –
78 | CC1=NN(c2ccccc2)C(=O)C1N=Nc1ccc(S(=O)(=O)Nc2nccc(C)n2)cc1 (stereo not drawn) | – | – | inactive
79 | C[CH2][Ge]([CH2]C)([CH2]C)[O]C(=O)CCC(=O)[O][Ge]([CH2]C)([CH2]C)[CH2]C | > 214 µM | > 214 µM | –
80 | CN(C)c1ccc(/C=C(\C#N)C(N)=C(C#N)C#N)cc1 | 132 µM | > 200 µM | –
81 | Cc1cn(COCCCOCC(=O)c2ccccc2)c(=O)[nH]c1=O | 93.3 µM | > 200 µM | –
82 | CC1(C)OC(=O)c2cc(C(=CCCBr)c3cc(Cl)c4c(c3)C(=O)OC(C)(C)O4)cc(Cl)c2O1 | > 100 µM | 41.7 µM | –
83 | N=c1oc2ccccc2cc1-c1nc2ccccc2c(=O)[nH]1 | – | – | inactive
84 | CN(C)CCCSCC(COc1nccc(-c2ccc(-c3ccc(-c4ccnc(OCC(CSCCCN(C)C)SCCCN(C)C)n4)s3)s2)n1)SCCCN(C)C (stereo not drawn) | > 4.27 µM | 2.69 µM | –
85 | C[C@@H]1C(=O)OCC2=C3C[C@@H](CC[C@@]3(C)C=CC2=O)[C@H](C)C(=O)OCC2=C3C[C@H]1CC[C@@]3(C)C=CC2=O | > 24.5 µM | 21.4 µM | –
86 | Cc1ccc(NC(=O)CC(=O)n2nc(-c3ccccc3)c(N=Nc3ccccc3C(=O)O)c2-c2ccccc2)cc1 | > 25.1 µM | > 25.1 µM | –
